Laboratory results: patent US20250208141A1, “FLUORESCENT PROBE FOR LABELING M1 MACROPHAGES, AND M1 MACROPHAGE MONITORING SYSTEM USING SAME” (INSTITUTE FOR BASIC SCIENCE, priority 2022, published 2025)

How the values were obtained:
GLUTs = assay: Glucose (D/L-glucose) competition test with CDr17 in M1 macrophages; format: cell-based, mouse; details: D/L-glucose 0, 20, 60 mM; CDr17 1 μM; M1 macrophages from RAW264.7
Protocol: In order to analyze a mechanism for selectivity of the compounds (probes) according to the examples, test was performed as follows, using the CDr17 compound of Example 8. First, in order to analyze whether the selectivity of CDr17 is related to GLUTs in cells, a glucose competition test was performed by the following method. As an M1 macrophage medium having no glucose differentiated in RAW264.7 cells, a medium comprising 10% Heat-Inactivated Fetal Bovine Serum (Gibco) and 1% penicillin streptomycin (WELGENE) comprising D/L-glucose at various concentrations (0 (Cont.), 20, 60 mM) were cultured for 5 minutes, and CDr17 (1 μM) was added. The nucleus was stained with Hoechst33342 (1 μg/mL), and the medium was replaced with a fresh medium after 30 minutes. Fluorescence microscopic imaging was performed with Operetta High Throughput screening with a 40× objective lens.

[1] = system: THP-1 M0, M1, M2 macrophages; assay: M1 macrophage selectivity by comparison with 2-NBDG in THP-1 macrophages; format: cell-based, human
Description: In order to compare the selectivity of CDr17 for M1 macrophages, 2-NBDG which is a generally used fluorescent probe was applied to THP-1 which is a macrophage cell line of human origin and tested.

GLUT1 = molecular target: T1, GLUT1 (Mus musculus, UniProt P17809); assay: GLUT1 blocking with STF-31, then CDr17 fluorescence in M1 macrophages; format: cell-based; details: M1 macrophage of RAW264.7; 1 μM CDr17 for 30 minutes
T1 construct: endogenous in cells; host or cells: M1 macrophages of RAW264.7 cells
T1 sequence (P17809 1-492): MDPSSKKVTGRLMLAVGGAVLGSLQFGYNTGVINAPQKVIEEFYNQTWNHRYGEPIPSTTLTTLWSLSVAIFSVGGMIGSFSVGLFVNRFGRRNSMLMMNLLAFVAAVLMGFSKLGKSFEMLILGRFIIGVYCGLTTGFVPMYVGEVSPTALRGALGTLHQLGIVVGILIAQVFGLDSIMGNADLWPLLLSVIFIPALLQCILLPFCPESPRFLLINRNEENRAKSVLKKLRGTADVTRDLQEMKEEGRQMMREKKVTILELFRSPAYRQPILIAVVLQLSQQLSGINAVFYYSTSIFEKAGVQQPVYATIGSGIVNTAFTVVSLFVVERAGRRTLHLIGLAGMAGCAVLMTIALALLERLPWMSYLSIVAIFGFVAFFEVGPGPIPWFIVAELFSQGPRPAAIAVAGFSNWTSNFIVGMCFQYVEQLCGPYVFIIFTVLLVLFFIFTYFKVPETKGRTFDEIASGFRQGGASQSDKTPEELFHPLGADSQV
Protocol: Next, the function of GLUT1 was blocked using STF-3121 which is a selective inhibitor of GLUT1 in the M1 macrophage of RAW264.7, and then a treatment was performed with 1 μM CDr17 for 30 minutes to monitor the inhibition effect.

GLUT = GLUT inhibition test (CDr17 absorption) with cytochalasin B19; format: cell-based, mouse; details: inhibitor 0, 0.03, 0.1, 0.3 μM, 30 minutes, M1 macrophage
Protocol: Next, a GLUT inhibition test was performed using cytochalasin B19 which is a general GLUT inhibitor. An inhibitor at various concentrations (0, 0.03, 0.1, 0.3 μM) was cultured for 30 minutes with the M1 macrophage, cells were treated with CDr17, and the fluorescence intensity was analyzed (FIG. 3).

O=C[C@H](O)[C@@H](O)[C@H](O)[C@H](O)CO [D-glucose]
effect on CDr17 fluorescence intensity / absorption by the M1 macrophage (GLUTs): decreased dose-dependently

O=[N+]([O-])c1ccc(N[C@H]2C(O)O[C@H](CO)[C@@H](O)[C@@H]2O)c2nonc12 (stereo partly drawn) [Example 2-NBDG, 2-NBDG]
ability to distinguish M1 macrophage from M0 and M2 by fluorescence intensity ([1]; THP-1, CDr17 0.5 μM, 2-NBDG 1, 5, 10, 50, 100 μM): M1 and M2 macrophages were not able to be clearly distinguished at any concentration | concentration needed for observation of fluorescence intensity ([1]; THP-1 macrophages): 100 µM

O=C[C@@H](O)[C@H](O)[C@@H](O)[C@@H](O)CO [L-glucose]
effect on CDr17 fluorescence intensity / absorption by the M1 macrophage (GLUTs): did not affect absorption of CDr17

CC(C)(C)c1ccc(S(=O)(=O)NCc2ccc(C(=O)Nc3cccnc3)cc2)cc1 [STF-31]
entry of CDr17 into M1 cells (GLUT1): significantly decreased dependently on the dose

cytochalasin B19
effect on absorption of CDr17 through GLUT (GLUT): blocked dose-dependently absorption of CDr17 through GLUT
